Laboratory results published in US20220380374A1, “1,4-DIHYDROBENZO[D]PYRAZOLO[3,4-F][1,3]DIAZEPINE DERIVATIVES AND RELATED COMPOUNDS AS LRRK2, NUAK1 AND/OR TYK2 KINASE MODULATORS FOR THE TREATMENT OF E.G. AUTOIMMUNE DISEASE” (Origenis GMBH, priority 2019, published 2022).

How the values were obtained:
[1] = biological target: T1, wt human TYK2, catalytic site (Homo sapiens, UniProt P29597); assay: HTRF KinEASE assay, TYK2; format: biochemical; settings: 1 μM ATP; read-out: IC50, inhibitory activity toward TYK2
T1 construct: 2 nM wt human TYK2, catalytic site (SignalChem/CAN); purchased SignalChem/CAN
T1 sequence (P29597 897-1176 limits assumed): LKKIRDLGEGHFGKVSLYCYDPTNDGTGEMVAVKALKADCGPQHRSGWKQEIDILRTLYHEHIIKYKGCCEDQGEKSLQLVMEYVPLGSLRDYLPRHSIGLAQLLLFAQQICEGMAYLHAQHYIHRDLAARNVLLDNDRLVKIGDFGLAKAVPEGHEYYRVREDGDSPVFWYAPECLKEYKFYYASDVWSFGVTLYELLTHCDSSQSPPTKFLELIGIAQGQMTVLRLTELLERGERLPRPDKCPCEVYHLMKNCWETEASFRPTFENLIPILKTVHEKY
Procedure, shortened: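 2 nM wt human TYK2 catalytic domain with 1 μM biotinylated TK substrate and 1 μM ATP in 1× kinase buffer was incubated ≥30 min at room temperature. Antibody and streptavidin-XL665 were added, and HTRF emission ratios were read after 60 min.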

[2] = biological target: T2, wt human NUAK1, full length (Homo sapiens, UniProt O60285); assay: TR-FRET LanthaScreen Eu Kinase Binding Assay, NUAK1; settings: 5 nM Kinase Tracer 236; read-out: IC50, inhibitory activity toward NUAK1
T2 construct: 8 nM wt human NUAK1, full length (ThermoFisher/USA); purchased ThermoFisher/USA
T2 sequence (O60285 1-661): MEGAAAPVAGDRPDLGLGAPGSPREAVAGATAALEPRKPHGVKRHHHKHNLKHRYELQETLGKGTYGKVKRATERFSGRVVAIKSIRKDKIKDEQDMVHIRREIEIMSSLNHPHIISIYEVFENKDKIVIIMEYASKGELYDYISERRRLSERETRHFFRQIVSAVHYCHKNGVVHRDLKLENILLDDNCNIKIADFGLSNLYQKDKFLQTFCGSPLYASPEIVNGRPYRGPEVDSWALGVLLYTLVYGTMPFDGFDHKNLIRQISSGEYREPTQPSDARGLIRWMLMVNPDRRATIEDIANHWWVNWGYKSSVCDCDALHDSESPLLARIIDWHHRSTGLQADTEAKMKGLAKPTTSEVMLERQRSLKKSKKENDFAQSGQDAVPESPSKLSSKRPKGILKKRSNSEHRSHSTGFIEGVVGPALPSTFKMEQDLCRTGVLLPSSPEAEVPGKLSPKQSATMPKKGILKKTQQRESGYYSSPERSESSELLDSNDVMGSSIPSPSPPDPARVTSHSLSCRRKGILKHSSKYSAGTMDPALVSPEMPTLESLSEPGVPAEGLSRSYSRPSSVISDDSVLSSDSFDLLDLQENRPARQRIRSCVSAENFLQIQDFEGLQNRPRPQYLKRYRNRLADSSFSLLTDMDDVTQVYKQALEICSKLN
Procedure, shortened: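 TR-FRET tracer-displacement binding with 8 nM full-length wild-type human NUAK1, 2 nM Eu-anti-His antibody and 5 nM Kinase Tracer 236 in 1× Kinase Buffer A (final). Compound, kinase/antibody and tracer incubated 1 h at room temperature; emission ratios analysed per kit protocol.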

| Structure (SMILES) | IC50 [1] [nM] | IC50 [2] [nM] |
| --- | --- | --- |
| Fc1cc2c(cc1-c1ccnnc1)N=C(c1c(F)cccc1F)Nc1c[nH]nc1-2 [Compound 226, 5-(2,6-difluorophenyl)-9-fluoro-8-(pyridazin-4-yl)-2,4-dihydrobenzo[d]pyrazolo[3,4-f][1,3]diazepine] | < 10 | < 10 |
| CCNC(=O)c1cc2c(cc1F)-c1n[nH]cc1N=C(c1c(F)cccc1F)N2 [Compound 211, 5-(2,6-difluorophenyl)-N-ethyl-9-fluoro-2,6-dihydrobenzo[d]pyrazolo[3,4-f][1,3]diazepine-8-carboxamide] | 10 to 100 | 10 to 100 |
| NC(=O)c1ccc2c(c1)-c1[nH]ncc1N=C(c1c(F)cccc1Cl)N2 [Compound 94, 5-(2-chloro-6-fluorophenyl)-1,6-dihydrobenzo[d]pyrazolo[3,4-f][1,3]diazepine-9-carboxamide] | 100 to 1000 | 10 to 100 |
| Fc1cccc(Cl)c1C1=Nc2cnc(Cl)cc2-c2n[nH]cc2N1 [Compound 190, 9-chloro-5-(2-chloro-6-fluorophenyl)-2,4-dihydropyrazolo[4,3-d]pyrido[4,3-f][1,3]diazepine] | 10 to 100 | 10 to 100 |
| Fc1cccc(-c2ccc3c(c2)N=C(c2c(F)cccc2Cl)Nc2c[nH]nc2-3)c1 [Compound 241, 5-(2-chloro-6-fluorophenyl)-8-(3-fluorophenyl)-2,4-dihydrobenzo[d]pyrazolo[3,4-f][1,3]diazepine] | < 10 | 10 to 100 |
| COC(=O)Nc1ccc2c(c1)N=C(c1c(F)cccc1F)Nc1c[nH]nc1-2 [Compound 164, methyl(5-(2,6-difluorophenyl)-2,4-dihydrobenzo[d]pyrazolo[3,4-f][1,3]diazepin-8-yl)carbamate] | 10 to 100 | 10 to 100 |
| OCCNc1cc(F)c(C2=Nc3c[nH]nc3-c3ccccc3N2)c(F)c1 [Compound 150, 2-((4-(2,6-dihydrobenzo[d]pyrazolo[3,4-f][1,3]diazepin-5-yl)-3,5-difluorophenyl)amino)ethan-1-ol] | 100 to 1000 | 100 to 1000 |
| Fc1cccc(F)c1C1=Nc2cn[nH]c2-c2cc(OC(F)F)ccc2N1 [Compound 42, 9-(difluoromethoxy)-5-(2,6-difluorophenyl)-1,6-dihydrobenzo[d]pyrazolo[3,4-f][1,3]diazepine] | 100 to 1000 | 10 to 100 |
| Fc1cccc(Cl)c1C1=Nc2cc(OC3CCOCC3)ccc2-c2[nH]ncc2N1 [Compound 155, 5-(2-chloro-6-fluorophenyl)-8-((tetrahydro-2H-pyran-4-yl)oxy)-1,4-dihydrobenzo[d]pyrazolo[3,4-f][1,3]diazepine] | 10 to 100 | 10 to 100 |
| Fc1ccc2c(c1)-c1n[nH]cc1NC(c1c(F)cc(OC(F)(F)F)cc1F)=N2 [Compound 214, 5-(2,6-difluoro-4-(trifluoromethoxy)phenyl)-9-fluoro-2,4-dihydrobenzo[d]pyrazolo[3,4-f][1,3]diazepine] | 100 to 1000 | 100 to 1000 |
| Cc1cc2c(cc1C(=O)O)NC(c1c(F)cccc1F)=Nc1cn[nH]c1-2 [Compound 156, 5-(2,6-difluorophenyl)-9-methyl-1,6-dihydrobenzo[d]pyrazolo[3,4-f][1,3]diazepine-8-carboxylic acid] | 10 to 100 | 100 to 1000 |
| Fc1cc2c(cc1-c1ccnnc1)N=C(c1c(F)cccc1Cl)Nc1c[nH]nc1-2 [Compound 230, 5-(2-chloro-6-fluorophenyl)-9-fluoro-8-(pyridazin-4-yl)-2,4-dihydrobenzo[d]pyrazolo[3,4-f][1,3]diazepine] | < 10 | 10 to 100 |
| CCNC(=O)c1cc2c(cc1Cl)-c1n[nH]cc1N=C(c1c(F)cccc1F)N2 [Compound 200, 9-chloro-5-(2,6-difluorophenyl)-N-ethyl-2,6-dihydrobenzo[d]pyrazolo[3,4-f][1,3]diazepine-8-carboxamide] | 10 to 100 | 10 to 100 |
| COc1ccc2c(c1)N=C(c1c(F)cccc1Cl)Nc1cn[nH]c1-2 [Compound 158, 5-(2-chloro-6-fluorophenyl)-8-methoxy-1,4-dihydrobenzo[d]pyrazolo[3,4-f][1,3]diazepine] | 10 to 100 | 10 to 100 |
| Cc1ccc2c(c1)-c1[nH]ncc1NC(c1c(Cl)ccc(F)c1F)=N2 [Compound 186, 5-(6-chloro-2,3-difluorophenyl)-9-methyl-1,4-dihydrobenzo[d]pyrazolo[3,4-f][1,3]diazepine] | 100 to 1000 | 10 to 100 |
| Fc1cccc(F)c1C1=Nc2cn[nH]c2-c2cn(-c3ccccc3)nc2N1 [Compound 68, 5-(2,6-difluorophenyl)-8-phenyl-6,8-dihydro-1H-dipyrazolo[3,4-d:3 ′,4′-f][1,3]diazepine] | 10 to 100 | 10 to 100 |
| Cc1ccc2c(c1)-c1[nH]ncc1N=C(c1c(F)cccc1Cl)N2 [Compound 35, 5-(2-chloro-6-fluorophenyl)-9-methyl-1,6-dihydrobenzo[d]pyrazolo[3,4-f][1,3]diazepine] | 100 to 1000 | 10 to 100 |
| Fc1ccc(-c2ccc3c(c2)N=C(c2c(F)cccc2Cl)Nc2c[nH]nc2-3)cc1 [Compound 238, 5-(2-chloro-6-fluorophenyl)-8-(4-fluorophenyl)-2,4-dihydrobenzo[d]pyrazolo[3,4-f][1,3]diazepine] | 10 to 100 | 10 to 100 |
| Fc1cc2c(cc1OC1CCOCC1)N=C(c1c(F)cccc1Cl)Nc1c[nH]nc1-2 [Compound 221, 5-(2-chloro-6-fluorophenyl)-9-fluoro-8-((tetrahydro-2H-pyran-4-yl)oxy)-2,4-dihydrobenzo[d]pyrazolo[3,4-f][1,3]diazepine] | < 10 | 100 to 1000 |
| Fc1cccc(F)c1C1=Nc2c(Cl)n[nH]c2-c2cc(Cl)ncc2N1 [Compound 171, 3,9-dichloro-5-(2,6-difluorophenyl)-1,6-dihydropyrazolo[4,3-d]pyrido[4,3-f][1,3]diazepine] | 10 to 100 | 10 to 100 |
| Fc1cccc(F)c1C1=Nc2ccncc2-c2[nH]ncc2N1 [Compound 53, 5-(2,6-difluorophenyl)-1,4-dihydropyrazolo[4,3-d]pyrido[3,4-f][1,3]diazepine] | 10 to 100 | 10 to 100 |
| O=C(O)c1ccc2c(c1)N=C(c1c(F)cccc1F)Nc1cn[nH]c1-2 [Compound 73, 5-(2,6-difluorophenyl)-1,4-dihydrobenzo[d]pyrazolo[3,4-f][1,3]diazepine-8-carboxylic acid] | < 10 | 10 to 100 |
| Fc1cccc(F)c1C1=Nc2cnccc2-c2[nH]ncc2N1 [Compound 71, 5-(2,6-difluorophenyl)-1,4-dihydropyrazolo[4,3-d]pyrido[4,3-f][1,3]diazepine] | 10 to 100 | < 10 |
| Fc1cccc(F)c1C1=Nc2c(Br)n[nH]c2-c2ccccc2N1 [Compound 69, 3-bromo-5-(2,6-difluorophenyl)-1,6-dihydrobenzo[d]pyrazolo[3,4-f][1,3]diazepine] | 10 to 100 | 10 to 100 |
| COc1ccc2c(c1)N=C(c1c(F)cccc1F)Nc1cn[nH]c1-2 [Compound 49, 5-(2,6-difluorophenyl)-8-methoxy-1,4-dihydrobenzo[d]pyrazolo[3,4-f][1,3]diazepine] | 10 to 100 | 100 to 1000 |
| CC(=O)Nc1cccc(-c2ccc3c(c2)N=C(c2c(F)cccc2F)Nc2cn[nH]c2-3)c1 [Compound 162, N-(3-(5-(2,6-difluorophenyl)-1,4-dihydrobenzo[d]pyrazolo[3,4-f][1,3]diazepin-8-yl)phenyl)acetamide] | < 10 | 10 to 100 |
| Fc1cccc(F)c1C1=Nc2cn[nH]c2-c2cc(Cl)cnc2N1 [Compound 64, 9-chloro-5-(2,6-difluorophenyl)-1,6-dihydropyrazolo[4,3-d]pyrido[3,2-f][1,3]diazepine] | 100 to 1000 | 10 to 100 |
| Fc1cccc(F)c1C1=Nc2ccccc2-c2[nH]nc(Cl)c2N1 [Compound 135, 3-chloro-5-(2,6-difluorophenyl)-1,4-dihydrobenzo[d]pyrazolo[3,4-f][1,3]diazepine] | 10 to 100 | 10 to 100 |
